Test results: patent US11000033B2, “Ketone or oxime compound, and herbicide” (NISSAN CHEMICAL CORPORATION, priority 2014, dated 2021)

Key:
Assay type in all cases: in vivo
[1] = test system: Digitaria ciliaris; assay: Test Example 5: herbicidal effect by foliage application, plastic box (symbol F); settings: 320 g/ha, 3 weeks after application
How it was run: (§1)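 Herbicide, formulated as an emulsion and diluted in water, is sprayed onto the aerial parts of 14-day seedlings. These were grown at 25° C. to 30° C. in sterilized diluvial soil; effects are graded after 3 weeks.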

[2] = test system: Abutilon theophrasti; assay: Test Example 4: herbicidal effect by soil treatment (symbol M)
How it was run: (§2)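 Seeds were sown in sterilized diluvial soil, covered with about 1.5 cm of soil, and the soil surface was sprayed with a water-diluted emulsion of the compound at a predetermined rate. Plants grew in a greenhouse at 25° C. to 30° C.; effects were scored visually 3 weeks after application.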

[3] = test system: directly sowed rice plant; assay: Test Example 3: effect on crop by foliage application, Wagner pot (symbol b); settings: application herbicide amount 320 g/ha
How it was run: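 Greenhouse culture at 25–30 °C of seeded rice, Cyperus difformis, Leptochloa chinensis and Echinochloa crus-galli var. crus-galli, in alluvial soil held under 0.1–0.5 cm of water in a Wagner pot.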

[4] = test system: Alopecurus myosuroides; assay: Test Example 4: herbicidal effect by soil treatment (symbol J)
How it was run: as §2

[5] = test system: Amaranthus retroflexus; assay: Test Example 4: herbicidal effect by soil treatment (symbol N)
How it was run: as §2

[6] = test system: Veronica persica; assay: Test Example 4: herbicidal effect by soil treatment (symbol R)
How it was run: as §2

[7] = test system: rapeseed; assay: Test Example 4: effect on crop by soil treatment (symbol g); settings: for g: rapeseed, effect on crop grade: application herbicide amount 320 g/ha; for g: rapeseed, effect grade on crop: 320 g/ha
How it was run: (§3)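 Sterilized diluvial soil, spot sowing, ~1.5 cm soil cover; greenhouse 25–30° C.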

[8] = test system: soybean; assay: Test Example 4: effect on crop by soil treatment (symbol d); settings: for d: soybean, effect on crop grade: application herbicide amount 320 g/ha; for d: soybean, effect grade on crop: 320 g/ha
How it was run: as §3

[9] = test system: Echinochloa crus-galli var. crus-galli; assay: Test Example 5: herbicidal effect by foliage application, plastic box (symbol H); settings: 320 g/ha, 3 weeks after application
How it was run: as §1

[10] = test system: Avena fatua; assay: Test Example 4: herbicidal effect by soil treatment (symbol I)
How it was run: as §2

[11] = test system: Echinochloa oryzacola Vasing.; assay: Test Example 1: herbicidal activity, application before weed generation in submerged conditions (symbol A); settings: application herbicide amount 320 g/ha
How it was run: (§4)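 Weed control was rated three weeks after treatment on a 0–5 scale, from 5% or lower up to 90% or more. Pre-emergence water-surface application of diluted emulsion at a predetermined rate was made on the day of sowing, in flooded (4 cm water) pots containing rice seedlings, kept at 25–30 °C under glass.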

[12] = test system: Scirpus juncoides; assay: Test Example 1: herbicidal activity, application before weed generation in submerged conditions (symbol B); settings: application herbicide amount 320 g/ha
How it was run: as §4

[13] = test system: transplanted rice plant; assay: Test Example 1: effect on crop, application before weed generation in submerged conditions (symbol a); settings: application herbicide amount 320 g/ha
How it was run: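 Rice at 2.5 leaf stage transplanted into submerged soil (4 cm depth) sown with three weed species; herbicide applied before weed emergence.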

[14] = test system: beet; assay: Test Example 4: effect on crop by soil treatment (symbol f); settings: for f: beet, effect grade on crop: 320 g/ha; for f: beet, effect on crop grade: application herbicide amount 320 g/ha
How it was run: as §3

[15] = test system: Monochoria vaginalis; assay: Test Example 2: herbicidal activity, application during weed generation in submerged conditions (symbol C); settings: Table 23; application herbicide amount 320 g/ha; grade 0-5 by criteria of Test Example 1
How it was run: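 Read-out: herbicidal effect on each species rated on a visual scale 3 weeks after treatment. Plants were raised together from seed in flooded alluvial soil (4 cm water) at 25° C. to 30° C. and treated at one to two leaves by water-surface application of diluted emulsion.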

[16] = application herbicide amount 320 g/ha

Structure (SMILES)	F: Digitaria ciliaris, herbicidal effect grade [1]	M: Abutilon theophrasti, herbicidal effect grade [2, 16]	effect on crop b (directly sowed rice plant), grade 0-5 [3]	J: Alopecurus myosuroides, herbicidal effect grade [4, 16]	N: Amaranthus retroflexus, herbicidal effect grade [5, 16]	R: Veronica persica, herbicidal effect grade [6, 16]	g: rapeseed, effect on crop grade [7]	d: soybean, effect on crop grade [8]	H: Echinochloa crus-galli var. crus-galli, herbicidal effect grade [9]	I: Avena fatua, herbicidal effect grade [10, 16]	Herbicidal effect grade, A: Echinochloa oryzacola Vasing. [11]	Herbicidal effect grade, B: Scirpus juncoides [12]	Effect grade on crop, a: transplanted rice plant [13]	M: Abutilon theophrasti, herbicidal effect grade ([2]; 320 g/ha)	J: Alopecurus myosuroides, herbicidal effect grade ([4]; 320 g/ha)	N: Amaranthus retroflexus, herbicidal effect grade ([5]; 320 g/ha)	g: rapeseed, effect grade on crop [7]	d: soybean, effect grade on crop [8]	f: beet, effect grade on crop [14]	I: Avena fatua, herbicidal effect grade ([10]; 320 g/ha)	other results
CON=C(C)CC1CC(O)=C(c2c(C)cc(C(=O)OC)cc2C)C1=O (stereo not drawn) [6-023]	5 (Herbicidal ratio of 90% or more (almost completely withered))	0 (Herbicidal ratio of 5% or lower (almost no effect))	5 (Herbicidal ratio of 90% or more (almost completely withered))	4 (Herbicidal ratio of 70% or higher and lower than 90%)	0 (Herbicidal ratio of 5% or lower (almost no effect))	0 (Herbicidal ratio of 5% or lower (almost no effect))	3 (Herbicidal ratio of 40% or higher and lower than 70%)	0 (Herbicidal ratio of 5% or lower (almost no effect))	5 (Herbicidal ratio of 90% or more (almost completely withered))	0 (Herbicidal ratio of 5% or lower (almost no effect))	0 (Herbicidal ratio of 5% or lower (almost no effect))	0 (Herbicidal ratio of 5% or lower (almost no effect))	4 (Herbicidal ratio of 70% or higher and lower than 90%)	–	–	–	–	–	–	–	–
CON=C(C)CC1CC(OS(=O)(=O)CCCCl)=C(c2c(C)cc(C)cc2C)C1=O (stereo not drawn) [1-142]	–	–	5 (Herbicidal ratio of 90% or more (almost completely withered))	–	–	–	–	–	–	–	5 (Herbicidal ratio of 90% or more (almost completely withered))	5 (Herbicidal ratio of 90% or more (almost completely withered))	5 (Herbicidal ratio of 90% or more (almost completely withered))	0 (Herbicidal ratio of 5% or lower (almost no effect))	5 (Herbicidal ratio of 90% or more (almost completely withered))	0 (Herbicidal ratio of 5% or lower (almost no effect))	3 (Herbicidal ratio of 40% or higher and lower than 70%)	0 (Herbicidal ratio of 5% or lower (almost no effect))	0 (Herbicidal ratio of 5% or lower (almost no effect))	3 (Herbicidal ratio of 40% or higher and lower than 70%)	F: Digitaria ciliaris, herbicidal effect (criteria 0-5) [1]: 5 (Herbicidal ratio of 90% or more (almost completely withered)); R: Veronica persica, herbicidal effect grade ([6]; 320 g/ha): 0 (Herbicidal ratio of 5% or lower (almost no effect)); H: Echinochloa crus-galli var. crus-galli, herbicidal effect (criteria 0-5) [9]: 5 (Herbicidal ratio of 90% or more (almost completely withered))
CON=C(C)CC1CC(O)=C(c2c(C)cc(Br)cc2C)C1=O (stereo not drawn) [6-003]	5 (Herbicidal ratio of 90% or more (almost completely withered))	5 (Herbicidal ratio of 90% or more (almost completely withered))	5 (Herbicidal ratio of 90% or more (almost completely withered))	5 (Herbicidal ratio of 90% or more (almost completely withered))	3 (Herbicidal ratio of 40% or higher and lower than 70%)	–	4 (Herbicidal ratio of 70% or higher and lower than 90%)	0 (Herbicidal ratio of 5% or lower (almost no effect))	5 (Herbicidal ratio of 90% or more (almost completely withered))	3 (Herbicidal ratio of 40% or higher and lower than 70%)	5 (Herbicidal ratio of 90% or more (almost completely withered))	4 (Herbicidal ratio of 70% or higher and lower than 90%)	5 (Herbicidal ratio of 90% or more (almost completely withered))	–	–	–	–	–	–	–	Herbicidal effect grade, C: Monochoria vaginalis [15]: 3 (Herbicidal ratio of 40% or higher and lower than 70%); f: beet, effect on crop grade [14]: 0 (Herbicidal ratio of 5% or lower (almost no effect))
CON=C(C)CC1CC(O)=C(c2c(C)cc(C(C)=O)cc2C)C1=O (stereo not drawn) [6-026]	5 (Herbicidal ratio of 90% or more (almost completely withered))	0 (Herbicidal ratio of 5% or lower (almost no effect))	5 (Herbicidal ratio of 90% or more (almost completely withered))	1 (Herbicidal ratio of 5% or higher and lower than 20%)	2 (Herbicidal ratio of 20% or higher and lower than 40%)	0 (Herbicidal ratio of 5% or lower (almost no effect))	0 (Herbicidal ratio of 5% or lower (almost no effect))	0 (Herbicidal ratio of 5% or lower (almost no effect))	5 (Herbicidal ratio of 90% or more (almost completely withered))	0 (Herbicidal ratio of 5% or lower (almost no effect))	1 (Herbicidal ratio of 5% or higher and lower than 20%)	0 (Herbicidal ratio of 5% or lower (almost no effect))	3 (Herbicidal ratio of 40% or higher and lower than 70%)	–	–	–	–	–	–	–	f: beet, effect on crop grade [14]: 0 (Herbicidal ratio of 5% or lower (almost no effect))
COC(=O)C(C(C)=O)C1CC(O)=C(c2c(C)cc(C)cc2C)C1=O (stereo not drawn) [2-003]	4 (Herbicidal ratio of 70% or higher and lower than 90%)	–	4 (Herbicidal ratio of 70% or higher and lower than 90%)	–	–	–	–	–	5 (Herbicidal ratio of 90% or more (almost completely withered))	–	0 (Herbicidal ratio of 5% or lower (almost no effect))	0 (Herbicidal ratio of 5% or lower (almost no effect))	0 (Herbicidal ratio of 5% or lower (almost no effect))	0 (Herbicidal ratio of 5% or lower (almost no effect))	4 (Herbicidal ratio of 70% or higher and lower than 90%)	0 (Herbicidal ratio of 5% or lower (almost no effect))	0 (Herbicidal ratio of 5% or lower (almost no effect))	0 (Herbicidal ratio of 5% or lower (almost no effect))	0 (Herbicidal ratio of 5% or lower (almost no effect))	0 (Herbicidal ratio of 5% or lower (almost no effect))	Herbicidal effect grade, C: Monochoria vaginalis [15]: 0 (Herbicidal ratio of 5% or lower (almost no effect))
